Test results taken from US9066938B2, “GPBP-1 inhibition and its therapeutic use” (Fibrostatin S.L., priority 2012, dated 2015).

test system: CSC derived from a uterine cancer; assay: Sensitivity of CSC derived from a uterine cancer; format: cell-based; conditions: data not shown

| Molecule | sensitivity of uterine cancer CSC to the compound |
| --- | --- |
| COc1ccc(-c2ccc(-c3ccc(OC)c(Cl)c3)c(C)c2)c(CCC(=O)O)c1 [T55] | highly sensitive |

molecular target: T1, human recombinant GPBP-1 (Homo sapiens, UniProt Q9Y5P4); assay: not given; conditions: Saus et al. 2008, 2010; cited from earlier work
T1 construct: made in house; host or cells: Pichia pastoris
T1 sequence (Q9Y5P4 1-624): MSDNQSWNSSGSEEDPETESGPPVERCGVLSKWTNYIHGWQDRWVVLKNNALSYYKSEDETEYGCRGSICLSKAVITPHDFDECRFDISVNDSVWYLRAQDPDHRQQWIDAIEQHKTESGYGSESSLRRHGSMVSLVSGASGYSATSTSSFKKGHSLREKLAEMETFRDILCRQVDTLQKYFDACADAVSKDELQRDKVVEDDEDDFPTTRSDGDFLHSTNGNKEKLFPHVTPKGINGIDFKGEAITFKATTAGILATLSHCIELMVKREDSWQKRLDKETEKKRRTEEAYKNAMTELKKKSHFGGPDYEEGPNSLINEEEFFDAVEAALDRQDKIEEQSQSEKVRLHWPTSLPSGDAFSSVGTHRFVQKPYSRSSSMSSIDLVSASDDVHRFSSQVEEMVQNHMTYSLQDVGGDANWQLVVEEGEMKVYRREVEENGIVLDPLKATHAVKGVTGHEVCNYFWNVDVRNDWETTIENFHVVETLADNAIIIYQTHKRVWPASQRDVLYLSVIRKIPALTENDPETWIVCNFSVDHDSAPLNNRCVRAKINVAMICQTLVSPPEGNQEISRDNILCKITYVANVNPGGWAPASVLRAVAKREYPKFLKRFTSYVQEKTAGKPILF

| Molecule | inhibition of GPBP-1 kinase activity |
| --- | --- |
| LATLSHCIELMVKR (SEQ ID NO: 8) [Q2, isolated peptide representing 260SHCIE264 and flanking regions of GPBP-1] | efficiently inhibits |

test system: A549 cells; assay: not given; format: cell-based; conditions: 50 μM
Experimental: FIG. 2. […] Cells were seeded in 96-well plates and treated with the indicated compound combinations. The cellular viability (cell number) was measured with alamarBlue® and arbitrary units of fluorescence after 36 h of treatment (vertical axis).
FIG. 7. […] A549 cells were seeded on 96-well culture plates and after 4 h were treated with the indicated concentrations of doxorubicin in absence or presence of T12 (50 μM) and/or CFTR-inhibitor-172 (25 μM). Cells were cultured for additional 36 h and cell viability assessed as in FIG. 2.
A549 human lung adenocarcinoma cancer cells (CLS Cell Lines Service) were used as an ex vivo model for the assessment of anti-tumor activity of specific compounds. Unless otherwise indicated A549 cells were cultured in DMEM: Ham's F12 medium supplemented with 2 mM L-glutamine and 10% fetal bovine serum. A549 cells resistant to doxorubicin (A549-DR) were obtained treating cells with 1 μM for 4 weeks. A549 cells were transfected with a plasmid that expresses GPBP-1 and further selected with G418 (Invitrogen) to obtain a cell line (A549-GPBP) that constitutively expresses GPBP-1.
Cytotoxicity assays were performed with alamarBlue® reagent (Invitrogen) according to manufacturer's instructions. A549 cells were seeded on 96-well culture plates (7,500 cells/well) and allowed to settle during 4 h. Then, cells were cultured with individual peptidomimetics at concentrations ranging from 0 to 50 μM, in presence of doxorubicin at concentrations ranging from 0 to 10 μM for 36 h. JLSM cells were harvested by treatment with 0.25% trypsin (Lonza) and plated on collagen I coated 96-well black culture plate (Perkin Elmer) at a density of 10.000 cells per cm^2. After 4 h settling, cells were treated with different peptidomimetics (with or without doxorubicin) for 36 h. Subsequently alamarBlue® reagent was added and incubation maintained for 3 h. Fluorescence was measured using 560EX nm/590EM nm filter settings with a SpectraMax GeminiXPS (Molecular Devices). Blank wells containing media were used to determine background fluorescence.
The activity shown for each compound in Table 1 is the factor by which doxorubicin LC50 is reduced by the compound at a 50-μM concentration in A549 cell cultures. […] The symbols −, −/+, +, ++, +++, ++++ in the third column are used to show relative activities of compounds in a simplified way.

| Molecule | toxicity of the compound by itself in A549 cultures |
| --- | --- |
| CCOC(=O)CCc1cc(O)ccc1-c1ccc(-c2cccnc2)c(CO)c1 [13c] | significantly toxic |
| CCCOc1ccc(-c2ccc(-c3cccc(C)c3)c(C)c2)c(CCC(=O)O)c1 [24a] | significantly toxic |
| CCCOc1ccc(-c2ccc(-c3cccc(C(F)(F)F)c3)c(C)c2)c(CCC(=O)O)c1 [24c] | significantly toxic |

same assay, conditions: CFTR-inhibitor-172 25 μM, T12 50 μM, 36 h

| Molecule | cell viability in cultures treated with T12 with or without doxorubicin |
| --- | --- |
| O=C(O)c1ccc(C=C2SC(=S)N(c3cccc(C(F)(F)F)c3)C2=O)cc1 [CFTR/ABCC7 inhibitor 172, 3-[(3-Trifluoromethyl)phenyl]-5-[(4-carboxyphenyl)methylene]-2-thioxo-4-thiazolidinone, reference compound] | significantly reduced cell viability |

same assay, conditions: compound at 10 μM, A549 cell cultures

| Molecule | Activity as enhancer of doxorubicin-induced cell death, relative activity symbol |
| --- | --- |
| CCOC(=O)CCc1cc(O)ccc1-c1ccc(-c2cccnc2)c(CO)c1 [13c] | + |
| CCCOc1ccc(-c2ccc(-c3cccc(C(F)(F)F)c3)c(C)c2)c(CCC(=O)O)c1 [24c] | ++ |

same assay, conditions: compound at 25 μM, A549 cell cultures

| Molecule | Activity as enhancer of doxorubicin-induced cell death, relative activity symbol |
| --- | --- |
| CCCOc1ccc(-c2ccc(-c3cccc(C)c3)c(C)c2)c(CCC(=O)O)c1 [24a] | ++ |
| COc1ccc(-c2ccc(-c3ccc(OC)c(Cl)c3)c(C)c2)c(CCC(=O)O)c1 [T55] | ++++ |

same assay, conditions: compound at 50 μM, A549 cell cultures

| Molecule | Activity as enhancer of doxorubicin-induced cell death, relative activity symbol |
| --- | --- |
| Cc1cccc(-c2ccc(-c3ccc(O)cc3CCC(=O)O)cc2CO)c1 | −/+ |
| Cc1cccc(-c2ccc(-c3ccc(O)cc3CCC(=O)O)cc2C)c1 | ++ |
| Cc1cccc(-c2ccc(-c3ccc(O)cc3CCC(=O)O)cc2CF)c1 | ++ |
| Cc1cccc(-c2ccc(-c3ccc(O)cc3CCC(=O)O)cc2C(F)F)c1 | ++ |
| COc1ccc(-c2ccc(-c3cccc(C)c3)c(CO)c2)c(CCC(=O)O)c1 | −/+ |
| O=C(O)CCc1cc(O)ccc1-c1ccc(-c2cccc(C(F)(F)F)c2)c(CO)c1 | − |
| Cc1cc(-c2ccc(O)cc2CCC(=O)O)ccc1-c1cccc(C(F)(F)F)c1 | + |
| O=C(O)CCc1cc(O)ccc1-c1ccc(-c2cccc(C(F)(F)F)c2)c(CF)c1 | ++++ |
| O=C(O)CCc1cc(O)ccc1-c1ccc(-c2cccc(C(F)(F)F)c2)c(C(F)F)c1 | ++ |
| COc1ccc(-c2ccc(-c3cccc(C(F)(F)F)c3)c(CO)c2)c(CCC(=O)O)c1 | + |
| COc1ccc(-c2ccc(-c3cccc(C(F)(F)F)c3)c(C)c2)c(CCC(=O)O)c1 | +++ |
| O=C(O)CCc1cc(O)ccc1-c1ccc(-c2cccnc2)c(CO)c1 | + |
| O=C(O)CCc1cc(O)ccc1-c1ccc(-c2cccnc2)c(CF)c1 | + |
| O=C(O)CCc1cc(O)ccc1-c1ccc(-c2cccnc2)c(C(F)F)c1 | + |
| C[n+]1cccc(-c2ccc(-c3ccc(O)cc3CCC(=O)[O-])cc2CO)c1 | − |
| COc1ccc(-c2ccc(-c3cccnc3)c(CO)c2)c(CCC(=O)O)c1 | − |
| COc1ccc(-c2ccc(-c3cccnc3)c(C)c2)c(CCC(=O)O)c1 | ++++ |
| COc1ccc(-c2ccc(-c3cccnc3)c(CF)c2)c(CCC(=O)O)c1 | +++ |
| Cc1cccc(-c2ccc(-c3ccc(OCC(=O)O)cc3CCC(=O)O)cc2C)c1 | − |
| CCCCCCCCCCCCCCCC(=O)Oc1ccc(-c2ccc(-c3cccc(C)c3)c(C)c2)c(CCC(=O)O)c1 | − |
| CCOC(=O)CCc1cc(O)ccc1-c1ccc(-c2cccc(C(F)(F)F)c2)c(C)c1 | −? |
| Cc1cccc(-c2ccc(-c3ccc(O)cc3C(C)C)cc2CCC(=O)O)c1 | + |
| Cc1cccc(-c2ccc(-c3ccc(O)cc3CCO)cc2CCC(=O)O)c1 | + |
| COc1ccc(-c2ccc(-c3ccc(OC)c(C)c3)c(C)c2)c(CCC(=O)O)c1 | ++++ |
